Read-outs that look alike come from different tables or passages of the source.
Legend:
[1] = system: P. falciparum clone W2/Indochina (chloroquine- and pyrimethamine-resistant); test: in vitro antimalarial activity against W2 (SYBR Green I); format: cell-based; details: for antimalarial activity against W2 (in words): comparison; for EC50: Plasmodium falciparum, P. falciparum W2, 72 hrs incubation; for less active against W2 in comparison to 17: relative to reference compound 17
Method: (§1) All synthesized quinolones were tested as described in Cross et al., (2010) J. Med. Chem. 53, 7076-7094 and Reid et al., (2011) Bioorg.
(§2) Parasite Culturing: P. falciparum clone W2/Indochina and TM90C2B/Thailand were grown in continuous culture using RPMI 1640 media containing 10% heat-inactivated type A+ human plasma, sodium bicarbonate (2.4 g/L), HEPES (5.94 g/L) and 4% washed human type A+ erythrocytes. Cultures were gassed with a 90% nitrogen, 5% oxygen and 5% carbon dioxide mixture followed by incubation at 37° C.
(§3) Assay Preparation: Test compounds at 5 mg/mL in DMSO were diluted at least 1:400 and then serially diluted in duplicate over 11 concentrations. P. falciparum cultures with greater than 70% ring stage parasites were diluted to 0.5-0.7% parasitemia and 1.5% hematocrit in RPMI 1640 media. In 96-well plates a volume of 90 μl/well of parasitized erythrocytes was added on top of 10 μL/well of the test compound. […] A Beckman Coulter Biomek 3000 was used to dispense test compounds, control drugs and parasitized erythrocytes into the microtiter plates. Positive and negative controls were included in each plate. […] Assay plates were placed into a plastic gassing chamber and equilibrated with 90% nitrogen, 5% oxygen and 5% carbon dioxide mixture then incubated at 37° C. for 72 hrs. The assay plates were then frozen at −80° C. until later processed for parasite growth determinations.
(§4) SYBR Green I Processing: Assay plates were removed from −80° C. storage and allowed to thaw at room temperature. Using the Beckman Biomek 3000, 100 μL was transferred from the assay plates into 96-well black assay plates. Next, 100 μl of SYBR green I (Invitrogen) in 2× lysis buffer (0.2 μl SYBR green I/mL of 2× lysis buffer (0.008% saponin, 0.08% Triton X-100, 20 mM Tris and 5 mM EDTA)) was dispensed into each well of the 96-well black assay plate using the Beckman Coulter Biomek 3000. Upon addition of SYBR green I the microtiter plates were incubated for 1 hrs. in the dark. Relative Fluorescence units (RFU) were read using a Molecular Devices Spectramax microplate reader.
(§5) Data Analysis: Data analysis was performed using a custom database manager (Dataspects, Inc). Nonlinear regression analysis was used to calculate EC50.

[2] = system: P. falciparum TM90-C2B/Thailand (chloroquine-, mefloquine-, pyrimethamine-, and atovaquone-resistant); test: in vitro antimalarial activity against TM90-C2B (SYBR Green I); format: cell-based; details: for antimalarial activity against TM90-C2B (in words): comparison; for EC50: Plasmodium falciparum, read-out: EC50 against TM90-C2B; for resistance index RI=EC50(TM90-C2B)/EC50(W2): RI 0.3-3.0 considered acceptable; for less potent against TM90-C2B than against W2: W2 versus TM90-C2B; for more potent against TM90-C2B compared to 27: relative to compound 27
Method: as §1, §2, §3, §4, §5

P. cynomolgi sporozoites = details: treated 5 to 7 consecutive days, cited from earlier work
[3] = P. falciparum TM90-C2B, 72 hrs incubation

CCCCc1cc2c(=O)c(-c3cccc(Oc4ccc(F)cc4)c3)c(C)[nH]c2cc1OCCOc1ccccc1 [Compound 36, 6-butyl-3-(3-(4-fluorophenoxy)phenyl)-2-methyl-7-(2-phenoxyethoxy)quinolin-4(1H)-one]
antimalarial activity against W2 (in words) [1]: inactive
antimalarial activity against TM90-C2B (in words) [2]: inactive

CCCCc1cc2c(=O)c(CC)c(C)[nH]c2cc1OCCOc1ccccc1 [Compound 16, 6-butyl-3-ethyl-2-methyl-7-(2-phenoxyethoxy)quinolin-4(1H)-one]
EC50 [1]: 1.92 nM
EC50 [2, 3]: 0.15 nM
resistance index RI=EC50(TM90-C2B)/EC50(W2) [2]: 0.08

CCCCc1cc2c(=O)c(-c3ccccc3)c(C)[nH]c2cc1OCCOc1ccccc1 [Compound 31, 6-butyl-2-methyl-7-(2-phenoxyethoxy)-3-phenylquinolin-4(1H)-one]
EC50 [2, 3]: 764 nM

CCCCc1cc2c(=O)c(-c3cccnc3)c(C)[nH]c2cc1OCCOc1ccccc1 [Compound 33, 6-butyl-2-methyl-7-(2-phenoxyethoxy)-3-(pyridin-3-yl)quinolin-4(1H)-one]
antimalarial activity against W2 (in words) [1]: moderate activity in low micromolar or high nanomolar range
antimalarial activity against TM90-C2B (in words) [2]: moderate activity in low micromolar or high nanomolar range

CCc1c(C)[nH]c2cc(OCCOc3ccccc3)c(Br)cc2c1=O [Compound 25, 6-bromo-3-ethyl-2-methyl-7-(2-phenoxy-ethoxy)-1H-quinolin-4-one]
antimalarial activity against W2 (in words) [1]: slightly reduced activities
antimalarial activity against TM90-C2B (in words) [2]: unaffected or slightly improved

CCCCc1cc2c(=O)c(-c3ccc(C(F)(F)F)cc3F)c(C)[nH]c2cc1OCCOc1ccccc1 [Compound 41, 6-butyl-3-(2-fluoro-4-(trifluoromethyl)phenyl)-2-methyl-7-(2-phenoxyethoxy)quinolin-4(1H)-one]
resistance index RI=EC50(TM90-C2B)/EC50(W2) [2]: pharmaceutically acceptable

CCCCc1cc2c(=O)c(C(=O)OC)c(C)[nH]c2cc1OCCOc1ccccc1 [Compound 5, Methyl 6-butyl-2-methyl-4-oxo-7-(2-phenoxyethoxy)-1,4-dihydroquinoline-3-carboxylate, reference compound]
relapse after 120 days of exposure (P. cynomolgi sporozoites; rhesus monkeys inoculated intravenously with sporozoites): no relapse
curative dose (P. cynomolgi sporozoites; rhesus monkeys): 15 mg/kg
EC50 [1]: 0.05 nM
EC50 [2, 3]: 11.2 nM
resistance index RI=EC50(TM90-C2B)/EC50(W2) [2]: 223
less potent against TM90-C2B than against W2 [2]: approximately 220

CCc1c(C)[nH]c2cc(OCCOc3ccccc3)c(Cl)cc2c1=O [Compound 17, 6-chloro-3-ethyl-2-methyl-7-(2-phenoxy-ethoxy)-1H-quinolin-4-one]
antimalarial activity against W2 (in words) [1]: slightly reduced activities
antimalarial activity against TM90-C2B (in words) [2]: unaffected or slightly improved

CCc1c(C)[nH]c2cc(OCCOc3ccccc3)c(C)cc2c1=O [Compound 18, 3-ethyl-2,6-dimethyl-7-(2-phenoxy-ethoxy)-1H-quiolin-4-one]
antimalarial activity against W2 (in words) [1]: less active
more potent against TM90-C2B compared to 27 [2]: 3 fold

CCc1c(C)[nH]c2cc(OCCCN3CCN(c4ccccc4)CC3)c(Cl)cc2c1=O [Compound 26, 6-chloro-3-ethyl-2-methyl-7-[3-(4-phenyl-piperazin-1-yl)-propoxy]-1H-quinolin-4-one]
less active against W2 in comparison to 17 [1]: approximately 4 fold

CCCCc1cc2c(=O)c(-c3ccc(OC(F)(F)F)cc3)c(C)[nH]c2cc1OCCOc1ccccc1 [Compound 35, 6-butyl-2-methyl-7-(2-phenoxyethoxy)-3-(4-(trifluoromethoxy)phenyl)quinolin-4(1H)-one]
EC50 [1]: 27.9 nM
EC50 [2, 3]: 31 nM
resistance index RI=EC50(TM90-C2B)/EC50(W2) [2]: 1.1

C[C@H]1[C@@H](O)O[C@@H]2O[C@@]3(C)CC[C@H]4[C@H](C)CC[C@@H]1[C@@]24OO3 [DHA, Dihydroartemisinin, reference compound]
EC50 [1]: 1.8 nM
EC50 ([2]; TM90, 72 h): 0.9 nM

CCCCc1cc2c(=O)c(-c3ccc(COc4ccc(OC(F)(F)F)cc4)cc3)c(C)[nH]c2cc1OCCOc1ccccc1 [Compound 37, 6-butyl-2-methyl-7-(2-phenoxyethoxy)-3-(4-((4-(trifluoromethoxy)phenoxy)methyl)phenyl) quinolin-4(1H)-one]
antimalarial activity against W2 (in words) [1]: inactive
antimalarial activity against TM90-C2B (in words) [2]: inactive

CCCCc1cc2c(=O)c(-c3ccncc3)c(C)[nH]c2cc1OCCOc1ccccc1 [Compound 32, 6-butyl-2-methyl-7-(2-phenoxyethoxy)-3-(pyridin-4-yl)quinolin-4(1H)-one]
antimalarial activity against W2 (in words) [1]: moderate activity in low micromolar or high nanomolar range
antimalarial activity against TM90-C2B (in words) [2]: moderate activity in low micromolar or high nanomolar range

CCc1c(C)[nH]c2cc(OCCOc3ccccc3)ccc2c1=O [Compound 27, 3-ethyl-2-methyl-7-(2-phenoxyethoxy)quinolin-4(1H)-one]
EC50 [1]: 104 nM
EC50 [2, 3]: 71.3 nM

CCc1c(C)[nH]c2cc(OCOC)c(Cl)cc2c1=O [Compound 20, 6-chloro-3-ethyl-7-methoxymethoxy-2-methyl-1H-quinoline-4-one]
less active against W2 in comparison to 17 [1]: approximately 4 fold

O=C1C(O)=C([C@H]2CC[C@H](c3ccc(Cl)cc3)CC2)C(=O)c2ccccc21 [ATO, atovaquone, reference compound]
EC50 [1]: 0.53 nM
EC50 [2, 3]: > 170 nM

CCc1c(C)[nH]c2cc(OCCOc3ccccc3)c(OC)cc2c1=O [Compound 19]
antimalarial activity against W2 (in words) [1]: less active
more potent against TM90-C2B compared to 27 [2]: 3 fold

CCCCc1cc2c(=O)c(-c3c(C)noc3C)c(C)[nH]c2cc1OCCOc1ccccc1 [Compound 43, 6-butyl-3-(3,5-dimethylisoxazol-4-yl)-2-methyl-7-(2-phenoxyethoxy)quinolin-4(1H)-one]
EC50 [1]: 27 nM
resistance index RI=EC50(TM90-C2B)/EC50(W2) [2]: pharmaceutically acceptable
less potent against TM90-C2B than against W2 [2]: approximately 5

CCc1c(C)[nH]c2cc(OCCN(C)C)c(Cl)cc2c1=O [Compound 24, 6-chloro-7-(2-dimethylamino-ethoxy)-3-ethyl-2-methyl-1H-quinolin-4-one]
melting point: 227 to 230 °C

CCc1c(C)[nH]c2cc(OCCN3CCOCC3)c(Cl)cc2c1=O [Compound 23, 6-chloro-3-ethyl-2-methyl-7-(2-morpholin-4-yl-ethoxy)-1H-quinolin-4-one]
melting point: 270 to 271 °C

Reference: patent publication US8877752B2, “4(1H)-quinolones having antimalarial activity with reduced chemical resistance” (University of South Florida, priority 2011, dated 2014)
